Structures can show the parent of a compound that is named as a salt.
How the values were obtained:
L6-myotubes [1] = assay: Glucose uptake in differentiated L6-myotubes (3H-2-deoxyglucose), compared to isoproterenol; type: cell-based; conditions: agonist 1×10^−5 M, 50 nM 3H-2-deoxyglucose
In short: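 Serum-starved differentiated L6 myotubes stimulated with agonist at 1×10^−5 M for 1 h 40 min, re-dosed in glucose-free medium for 20 min, then given 50 nM ^3H-2-deoxyglucose for 10 min. Uptake read by β-counting of NaOH lysates; activity expressed relative to isoproterenol.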

L6-myotubes [2] = assay: Measurement of intracellular cAMP levels in differentiated L6 cells (alpha screen cAMP kit), compared to isoproterenol; type: cell-based; conditions: agonist 1×10^−5 M, 15 min; for Emax at 10 µM: Rattus norvegicus, L6, 0.25 h, read-out: Biological example 2: intracellular cAMP levels, activity compared to that of isoproterenol
In short: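 L6 myoblasts were differentiated into myotubes over 7 days in 2% FBS, then serum-starved overnight. Agonist at 1×10^−5 M final was applied for 15 min in HBSS with 1% BSA, 5 mM HEPES and 1 mM IBMX, pH 7.4. After ethanol extraction and lysis, cAMP was quantified by AlphaScreen, with activity expressed relative to isoproterenol.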

Compound: CC(C)(C[C@H]1CC[C@H](NC(=O)OC(C)(C)C)CC1)NC[C@H](O)c1cccc(F)c1 [Example 153, tert-Butyl ((1R,4r)-4-(2-(((R)-2-(3-fluorophenyl)-2-hydroxyethyl)amino)-2-methylpropyl)cyclohexyl)carbamate]
- Biological example 1: glucose uptake, activity compared to that of isoproterenol (L6-myotubes [1]): + + +
- Emax at 10 µM (L6-myotubes [2]): 25 to 50%

Compound: CC(C)(C[C@H]1CC[C@H](NC(=O)C(C)(C)C)CC1)NC[C@H](O)c1cccc(F)c1.Cl [Example 154, N-((1R,4r)-4-(2-(((R)-2-(3-Fluorophenyl)-2-hydroxyethyl)amino)-2-methylpropyl)cyclohexyl)pivalamide hydrochloride]
- Biological example 1: glucose uptake, activity compared to that of isoproterenol (L6-myotubes [1]): + + +
- Emax at 10 µM (L6-myotubes [2]): 25 to 50%

Compound: CC(C)(C[C@H]1CC[C@H](NC(=O)C2CCC2)CC1)NC[C@H](O)c1cccc(F)c1.Cl [Example 155, N-((1R,4r)-4-(2-(((R)-2-(3-Fluorophenyl)-2-hydroxyethyl)amino)-2-methylpropyl)cyclohexyl)cyclobutanecarboxamide hydrochloride]
- Biological example 1: glucose uptake, activity compared to that of isoproterenol (L6-myotubes [1]): + + +
- Biological example 2: intracellular cAMP levels, activity compared to that of isoproterenol (L6-myotubes [2]): + +

Compound: CC(C)(C[C@H]1CC[C@H](NC(=O)C2CC2)CC1)NC[C@H](O)c1cccc(F)c1.Cl [Example 156, N-((1R,4r)-4-(2-(((R)-2-(3-Fluorophenyl)-2-hydroxyethyl)amino)-2-methylpropyl)cyclohexyl)cyclopropanecarboxamide hydrochloride]
- Biological example 1: glucose uptake, activity compared to that of isoproterenol (L6-myotubes [1]): + + +
- Biological example 2: intracellular cAMP levels, activity compared to that of isoproterenol (L6-myotubes [2]): + + +

Compound: CC(C)(C[C@H]1CC[C@H](NC(=O)C(F)(F)F)CC1)NC[C@H](O)c1cccc(F)c1.Cl [Example 157, 2,2,2-Trifluoro-N-((1R,4r)-4-(2-(((R)-2-(3-fluorophenyl)-2-hydroxyethyl)-amino)-2-methylpropyl)cyclohexyl)acetamide hydrochloride]
- Biological example 1: glucose uptake, activity compared to that of isoproterenol (L6-myotubes [1]): + + +
- Emax at 10 µM (L6-myotubes [2]): 25 to 50%

Compound: CN(C)C(=O)N[C@H]1CC[C@H](CC(C)(C)NC[C@H](O)c2cccc(F)c2)CC1.Cl [Example 158, 3-((1R,4r)-4-(2-(((R)-2-(3-Fluorophenyl)-2-hydroxyethyl)amino)-2-methyl-propyl)cyclohexyl)-1,1-dimethylurea hydrochloride]
- Biological example 1: glucose uptake, activity compared to that of isoproterenol (L6-myotubes [1]): + + +
- Biological example 2: intracellular cAMP levels, activity compared to that of isoproterenol (L6-myotubes [2]): + + +

Compound: CCCS(=O)(=O)N[C@H]1CC[C@H](CC(C)(C)NC[C@H](O)c2cccc(F)c2)CC1 [Example 159, N-((1R,4r)-4-(2-(((R)-2-(3-Fluorophenyl)-2-hydroxyethyl)amino)-2-methylpropyl)cyclohexyl)propane-1-sulfonamide hydrochloride]
- Biological example 1: glucose uptake, activity compared to that of isoproterenol (L6-myotubes [1]): + + +
- Emax at 10 µM (L6-myotubes [2]): 25 to 50%

Compound: CC(C)(C[C@H]1CC[C@H](NS(=O)(=O)C(F)(F)F)CC1)NC[C@H](O)c1cccc(F)c1 [Example 160, 1,1,1-Trifluoro-N-((1R,4r)-4-(2-(((R)-2-(3-fluorophenyl)-2-hydroxyethyl)-amino)-2-methylpropyl)cyclohexyl)methanesulfonamide hydrochloride]
- Biological example 1: glucose uptake, activity compared to that of isoproterenol (L6-myotubes [1]): + + +
- Emax at 10 µM (L6-myotubes [2]): < 25%

Compound: CC(C)(C[C@H]1CC[C@H](NS(=O)(=O)C2CC2)CC1)NC[C@H](O)c1cccc(F)c1 [Example 161, N-((1R,4r)-4-(2-(((R)-2-(3-Fluorophenyl)-2-hydroxyethyl)amino)-2-methypropyl)cyclohexyl)cyclopropanesulfonamide hydrochloride]
- Biological example 1: glucose uptake, activity compared to that of isoproterenol (L6-myotubes [1]): + +
- Emax at 10 µM (L6-myotubes [2]): < 25%

Compound: CC(C)(C[C@H]1CC[C@@H](NC(=O)OC(C)(C)C)CC1)NC[C@H](O)c1cccc(F)c1 [Example 162, tert-Butyl ((1S,4s)-4-(2-(((R)-2-(3-fluorophenyl)-2-hydroxyethyl)amino)-2-methylpropyl)cyclohexyl)carbamate]
- Biological example 1: glucose uptake, activity compared to that of isoproterenol (L6-myotubes [1]): + + +
- Emax at 10 µM (L6-myotubes [2]): < 25%

Compound: CC(C)(C[C@H]1CC[C@@H](N)CC1)NC[C@H](O)c1cccc(F)c1 [Example 163, (R)-2-((1-((1s,4S)-4-Aminocyclohexyl)-2-methylpropan-2-yl)amino)-1-(3-fluorophenyl)ethan-1-ol]
- Biological example 1: glucose uptake, activity compared to that of isoproterenol (L6-myotubes [1]): + + +
- Emax at 10 µM (L6-myotubes [2]): < 25%

Compound: CC(=O)N[C@H]1CC[C@@H](CC(C)(C)NC[C@H](O)c2cccc(F)c2)CC1 [Example 164, N-((1S,4s)-4-(2-(((R)-2-(3-Fluorophenyl)-2-hydroxyethyl)amino)-2-methylpropyl)cyclohexyl)acetamide]
- Biological example 1: glucose uptake, activity compared to that of isoproterenol (L6-myotubes [1]): + + +
- Emax at 10 µM (L6-myotubes [2]): < 25%

Compound: CC(C)(C[C@H]1CC[C@@H](NC(=O)C(C)(C)C)CC1)NC[C@H](O)c1cccc(F)c1 [Example 165, N-((1S,4s)-4-(2-(((R)-2-(3-Fluorophenyl)-2-hydroxyethyl)amino)-2-methylpropyl)cyclohexyl)pivalamide hydrochloride]
- Biological example 1: glucose uptake, activity compared to that of isoproterenol (L6-myotubes [1]): + + +
- Emax at 10 µM (L6-myotubes [2]): < 25%

Compound: CC(C)(C[C@H]1CC[C@@H](NC(=O)C2CC2)CC1)NC[C@H](O)c1cccc(F)c1 [Example 166, N-((1S,4s)-4-(2-(((R)-2-(3-Fluorophenyl)-2-hydroxyethyl)amino)-2-methylpropyl)cyclohexyl)cyclopropanecarboxamide hydrochloride]
- Biological example 1: glucose uptake, activity compared to that of isoproterenol (L6-myotubes [1]): + + +
- Emax at 10 µM (L6-myotubes [2]): < 25%

Compound: CC(C)(C[C@H]1CC[C@@H](NC(=O)C2CCC2)CC1)NC[C@H](O)c1cccc(F)c1 [Example 167, N-((1S,4s)-4-(2-(((R)-2-(3-Fluorophenyl)-2-hydroxyethyl)amino)-2-methylpropyl)cyclohexyl)cyclobutanecarboxamide hydrochloride]
- Biological example 1: glucose uptake, activity compared to that of isoproterenol (L6-myotubes [1]): + +
- Emax at 10 µM (L6-myotubes [2]): < 25%

Compound: CC(C)(C[C@H]1CC[C@@H](NC(=O)C(F)(F)F)CC1)NC[C@H](O)c1cccc(F)c1 [Example 168, 2,2,2-Trifluoro-N-((1S,4s)-4-(2-(((R)-2-(3-Fluorophenyl)-2-hydroxyethyl)-amino)-2-methylpropyl)cyclohexyl)acetamide hydrochloride]
- Biological example 1: glucose uptake, activity compared to that of isoproterenol (L6-myotubes [1]): + + +
- Emax at 10 µM (L6-myotubes [2]): < 25%

Compound: CN(C)C(=O)N[C@H]1CC[C@@H](CC(C)(C)NC[C@H](O)c2cccc(F)c2)CC1 [Example 169, 3-((1S,4s)-4-(2-(((R)-2-(3-Fluorophenyl)-2-hydroxyethyl)amino)-2-methylpropyl)cyclohexyl)-1,1-dimethylurea hydrochloride]
- Biological example 1: glucose uptake, activity compared to that of isoproterenol (L6-myotubes [1]): + + +
- Emax at 10 µM (L6-myotubes [2]): 25 to 50%

Compound: CC(C)(C[C@H]1CC[C@@H](NS(C)(=O)=O)CC1)NC[C@H](O)c1cccc(F)c1 [Example 170, N-((1S,4s)-4-(2-(((R)-2-(3-Fluorophenyl)-2-hydroxyethyl)amino)-2-methylpropyl)cyclohexyl)methanesulfonamide hydrochloride]
- Biological example 1: glucose uptake, activity compared to that of isoproterenol (L6-myotubes [1]): + + +
- Emax at 10 µM (L6-myotubes [2]): < 25%

Compound: CCCS(=O)(=O)N[C@H]1CC[C@@H](CC(C)(C)NC[C@H](O)c2cccc(F)c2)CC1 [Example 171, N-((1S,4s)-4-(2-(((R)-2-(3-Fluorophenyl)-2-hydroxyethyl)amino)-2-methylpropyl)cyclohexyl)propane-1-sulfonamide hydrochloride]
- Biological example 1: glucose uptake, activity compared to that of isoproterenol (L6-myotubes [1]): + + +
- Emax at 10 µM (L6-myotubes [2]): < 25%

Compound: CC(C)(C[C@H]1CC[C@@H](NS(=O)(=O)C(F)(F)F)CC1)NC[C@H](O)c1cccc(F)c1 [Example 172, 1,1,1-Trifluoro-N-((1S,4s)-4-(2-(((R)-2-(3-fluorophenyl)-2-hydroxyethyl)-amino)-2-methylpropyl)cyclohexyl)methanesulfonamide hydrochloride]
- Biological example 1: glucose uptake, activity compared to that of isoproterenol (L6-myotubes [1]): + +
- Emax at 10 µM (L6-myotubes [2]): < 25%

Compound: CC(C)(C[C@H]1CC[C@@H](NC(=O)OC(C)(C)C)CC1)NC[C@H](O)c1cncc(F)c1 [Example 174, tert-Butyl ((1S,4s)-4-(2-(((R)-2-(5-fluoropyridin-3-yl)-2-hydroxyethyl)-amino)-2-methylpropyl)cyclohexyl)carbamate]
- Biological example 1: glucose uptake, activity compared to that of isoproterenol (L6-myotubes [1]): + + +
- Emax at 10 µM (L6-myotubes [2]): < 25%

Compound: CC(C)(C[C@H]1CC[C@@H](N)CC1)NC[C@H](O)c1cncc(F)c1 [Example 175, (R)-2-((1-((1s,4S)-4-Aminocyclohexyl)-2-methylpropan-2-yl)amino)-1-(5-fluoropyridin-3-yl)ethan-1-ol]
- Biological example 1: glucose uptake, activity compared to that of isoproterenol (L6-myotubes [1]): + +
- Emax at 10 µM (L6-myotubes [2]): < 25%

Compound: CC(=O)N[C@H]1CC[C@@H](CC(C)(C)NC[C@H](O)c2cncc(F)c2)CC1 [Example 176, N-((1S,4s)-4-(2-(((R)-2-(5-Fluoropyridin-3-yl)-2-hydroxyethyl)amino)-2-methylpropyl)cyclohexyl)acetamide]
- Biological example 1: glucose uptake, activity compared to that of isoproterenol (L6-myotubes [1]): + + +
- Emax at 10 µM (L6-myotubes [2]): < 25%

Compound: CC(C)(C[C@H]1CC[C@@H](NS(C)(=O)=O)CC1)NC[C@H](O)c1cncc(F)c1 [Example 177, N-((1S,4s)-4-(2-(((R)-2-(5-Fluoropyridin-3-yl)-2-hydroxyethyl)amino)-2-methylpropyl)cyclohexyl)methanesulfonamide]
- Biological example 1: glucose uptake, activity compared to that of isoproterenol (L6-myotubes [1]): + + +
- Emax at 10 µM (L6-myotubes [2]): < 25%

Compound: CC(=O)N(C)[C@H]1CC[C@H](CC(C)(C)NC[C@H](O)c2cccc(F)c2)CC1.Cl [Example 178, N-((1R,4r)-4-(2-(((R)-2-(3-Fluorophenyl)-2-hydroxyethyl)amino)-2-methylpropyl)cyclohexyl)-N-methylacetamide hydrochloride]
- Biological example 1: glucose uptake, activity compared to that of isoproterenol (L6-myotubes [1]): + + +
- Emax at 10 µM (L6-myotubes [2]): < 25%

Source: patent publication US20240390298A1, “CYCLOHEXYL BETA-HYDROXY ALKYL AMINES AND MEDICAL USES THEREOF” (ATROGI AB, priority 2021, published 2024)
